Source: ChEMBL document CHEMBL3751789, “Synthesis, isomerization and biological activity of novel 2-selenohydantoin derivatives” (Bioorg Med Chem, 2016)
The source made the active and inactive calls. The calls are words filed in the database; no cut-off is given here.

Tests used:
[1] = Antioxidant activity assessed as peroxide reduction rate at 80 uM using H2O2/pyrocatechol as substrate/hydrogen-donar; format: physicochemical
SiHa = assay: Cytotoxicity against human SiHa cells after 48 hrs by MTT assay; format: functional
[2] = Antioxidant activity assessed as peroxide reduction rate at 80 uM using H2O2/GSH as substrate/hydrogen-donar by GPx-based assay; format: physicochemical
HepG2 = assay: Cytotoxicity against human HepG2 cells after 48 hrs by MTT assay; format: functional
[3] = Antioxidant activity assessed as peroxide reduction rate at 80 uM using H2O2/4-aminoantipyrine as substrate/hydrogen-donar; format: physicochemical
[4] = Antioxidant activity assessed as peroxide reduction rate at 80 uM using H2O2/guaiacol as substrate/hydrogen-donar by ABTS-based assay; format: physicochemical
HEK293 [5] = assay: (§1) Cytotoxicity against HEK293 cells after 48 hrs by MTT assay; format: cell-based; conditions: human, hek293, 48 h
[6] = Antioxidant activity assessed as peroxide reduction rate at 80 uM using H2O2/pyrogallol as substrate/hydrogen-donar by ABTS-based assay; format: physicochemical
MCF7 = assay: Cytotoxicity against human MCF7 cells after 48 hrs by MTT assay; format: functional
HEK293 [7] = assay: Selectivity index, ratio CC50 for HEK293 cells to CC50 for human SiHa cells; format: functional
HEK293 [8] = assay: Selectivity index, ratio CC50 for HEK293 cells to CC50 for human MCF7 cells; format: functional
HEK293 [9] = assay: Selectivity index, ratio CC50 for HEK293 cells to CC50 for human HepG2 cells; format: functional
[10] = as §1; format: cell-based; conditions: human, HEK293 cells
[11] = Antioxidant activity assessed as oxidation potential using Au electrode by cyclic voltammetric analysis; format: physicochemical
[12] = Antioxidant activity assessed as electrochemical reduction using Au electrode by cyclic voltammetric analysis; format: physicochemical
[13] = Antioxidant activity assessed as oxidation potential using glass carbon electrode by cyclic voltammetric analysis; format: physicochemical
[14] = Antioxidant activity assessed as electrochemical reduction using glass carbon electrode by cyclic voltammetric analysis; format: physicochemical

Compound	Activity [1] [µM/min]	CC50 (SiHa)	Activity [2] [µM/min]	CC50 (HepG2)	Activity [3] [µM/min]	Activity [4] [µM/min]	CC50 (HEK293 [5])	Activity [6] [µM/min]	CC50 (MCF7)	Selectivity Index (HEK293 [7])	CC50 (HepG2; HepG2, 48 h) [µM]	Selectivity Index (HEK293 [8])	Selectivity Index (HEK293 [9])	CC50 at 48 h [10] [µM]	CC50 (MCF7; MCF7, 48 h) [µM]	Activity [11] [V]	Activity [12] [V]	Activity [13] [V]	Activity [14] [V]
C=CCN1C(=O)/C(=C/c2ccccn2)NC1=S	0	inactive	0	inactive	0	0	Not Active	0	inactive										
C=CCN1C(=O)/C(=C/c2ccccn2)N=C1[Se]C	0	3.66 µM	0		0	0		0		>2	6.62	>2	>2	12.6	7.18				
CCOC(=O)CNC(=[Se])NC1CCCCC1	1.3		82		0	0		0											
C=CCN1C(=O)CNC1=S		42.4 µM									40.7			58.2	35.2				
O=C1/C(=C/c2ccccn2)NC(=[Se])N1C1CCCCC1	0		138		3	0		0								1.23	-1.81	1.16	-2.2
C=CCN1C(=O)/C(=C/c2ccccn2)NC1=[Se]	0	23.6 µM	79		0	0		0		>2	29.8	>2	>2	42.6	31.2	1.21	-1.79	1.2	-2.15
C=CCN1C(=O)CNC1=[Se]		12.7 µM									16.4			10.3	44.1				
O=c1c2ccccc2[se]n1-c1ccccc1 [EBSELEN]			140																
O=C1/C(=C/c2ccccn2)N=C([Se]CC[Se]C2=N/C(=C\c3ccccn3)C(=O)N2C2CCCCC2)N1C1CCCCC1																1.28	-1.86	1.46	-2.61
C=CCN1C(=O)/C(=C/c2ccccn2)N=C1SC		102 µM					Not Active		inactive		56.7								
